Source: patent publication US20050227956A1, “Control of mold growth on wood” (priority 2004, published 2005)

Assays:
Trichoderma virens = assay: Six-well plate screening test; assay type: cell-based; details: for Minimum Inhibitory Concentrations (MIC): 10 days of incubation at room temperature
Aureobasidium pullulans = assay: Six-well plate screening test; assay type: cell-based; details: for Minimum Inhibitory Concentrations (MIC): 10 days of incubation at room temperature
Alternaria alternata = assay: Six-well plate screening test; assay type: cell-based; details: for Minimum Inhibitory Concentrations (MIC): 10 days of incubation at room temperature
[1] = tested on: Alternaria alternata, Aspergillus niger, Aureobasidium pullulans, Cladosporium cladosporioides, Cephalosporium sp. (DR 423); assay: Wood panel test method; parameters: species or system mixed spore suspension of mold; details: compositions with the single moldicide at 40 mg/kg
Method: The wood panel specimens were approximately 5×3 inches (12.7×7.6 cm)×board thickness. There were seven replicates per treatment. The wood panels were conditioned at approximately 80° F. (27° C.) and 80% relative humidity for one week prior to mold inoculation. The wood panels were supported on a screen above a layer of water in a sealed plastic box for 8 weeks at approximately 80° F. (27° C.) and 100% relative humidity.
Mold and stain fungi used for inoculum were Alternaria alternata, Aspergillus niger, Aureobasidium pullulans, Cladosporium cladosporioides, and an additional mold isolated from ACQ-treated wood from Georgia Pacific (October 2002, tentatively identified as Cephalosporium sp. (DR 423).
Each inoculum was produced from fully colonized, 2% malt agar in 100 mm petri plates, by washing spores with 10 mL distilled water plus 10 mL rinse (20 mL inoculum were produced per plate). The panels were inoculated by spraying with mixed spore suspension of mold on the surface to be evaluated; approx. 2-3 mL of inoculum were applied per panel. The panel surfaces were lightly misted with distilled water once per week during the evaluation test to maintain optimum conditions for mold colonization in the chambers. Two evaluation ratings were made weekly for 8 weeks; using a scale of 0 (no coverage by mold) to 10 (total coverage by mold). […]

Penicillium funiculosum = assay: Six-well plate screening test; assay type: cell-based; details: for Minimum Inhibitory Concentrations (MIC): 10 days of incubation at room temperature
Mold from ACQ wood = assay: Six-well plate screening test; assay type: cell-based, cephalosporium; details: 10 days of incubation at room temperature
[2] = tested on: Cladosporium cladosporioides; assay: Six-well plate screening test; assay type: cell-based; details: for Minimum Inhibitory Concentrations (MIC): 10 days of incubation at room temperature
Aspergillus niger = assay: Six-well plate screening test; assay type: cell-based; details: for Minimum Inhibitory Concentrations (MIC): 10 days of incubation at room temperature
Stachybotrus charatrum = assay: Six-well plate screening test; assay type: cell-based
[3] = single moldicide or ACQ-C alone, incubation period 14 days
[4] = single moldicide, incubation period 21 days

Structure (SMILES): CC(C)(C)C(O)(CCc1ccc(Cl)cc1)Cn1cncn1 (racemic) [Tebuconazole, (RS)-1-p-chlorophenyl4,4-dimethyl-3-(1H-1,2,4-triazol-1-ylmethyl)pentan-3-ol]
- Minimum Inhibitory Concentrations (MIC) (Trichoderma virens): >10 mg/kg
- MIC (Trichoderma virens; [3]): >10 mg/kg
- Minimum Inhibitory Concentrations (MIC) (Aureobasidium pullulans): 10 mg/kg
- MIC (Aureobasidium pullulans; [3]): 10 mg/kg
- Minimum Inhibitory Concentrations (MIC) (Alternaria alternata): 100 mg/kg
- MIC (Alternaria alternata; [3]): 100 mg/kg
- potential to control mold growth [1]: good potential to control mold growth
- Minimum Inhibitory Concentrations (MIC) (Penicillium funiculosum): >10 mg/kg
- MIC (Penicillium funiculosum; [3]): >10 mg/kg
- Minimum Inhibitory Concentrations (MIC) (Mold from ACQ wood): >100 mg/kg
- Minimum Inhibitory Concentrations (MIC) [2]: 10 mg/kg
- MIC [2, 3]: 10 mg/kg
- Minimum Inhibitory Concentrations (MIC) (Aspergillus niger): 10 mg/kg
- MIC (Aspergillus niger; [3]): 10 mg/kg

Structure (SMILES): CCCC1COC(Cn2cncn2)(c2ccc(Cl)cc2Cl)O1 (stereo not drawn) [Propiconazole, cis-trans-1-[2-(2,4-dichlorophenyl)-4-propyl-1,3-dioxolan-2-ylmethyl]-1H-1,2,4-triazole]
- Minimum Inhibitory Concentrations (MIC) (Trichoderma virens): 10 mg/kg
- MIC (Trichoderma virens; [3]): 6.2 mg/kg
- MIC (Trichoderma virens; [4]): 12.5 mg/kg
- Minimum Inhibitory Concentrations (MIC) (Aureobasidium pullulans): 1 mg/kg
- MIC (Aureobasidium pullulans; [3]): 0.8 mg/kg
- MIC (Aureobasidium pullulans; [4]): 0.8 mg/kg
- Minimum Inhibitory Concentrations (MIC) (Alternaria alternata): >100 mg/kg
- MIC (Alternaria alternata; [3]): 100 mg/kg
- MIC (Alternaria alternata; [4]): 100 mg/kg
- potential to control mold growth [1]: good potential to control mold growth
- Minimum Inhibitory Concentrations (MIC) (Penicillium funiculosum): 100 mg/kg
- MIC (Penicillium funiculosum; [3]): >100 mg/kg
- MIC (Penicillium funiculosum; [4]): >100 mg/kg
- MIC (Stachybotrus charatrum; [3]): 25 mg/kg
- MIC (Stachybotrus charatrum; [4]): 25 mg/kg
- Minimum Inhibitory Concentrations (MIC) (Mold from ACQ wood): 10 mg/kg
- Minimum Inhibitory Concentrations (MIC) [2]: 1 mg/kg
- MIC [2, 3]: 3.1 mg/kg
- MIC [2, 4]: 3.1 mg/kg
- Minimum Inhibitory Concentrations (MIC) (Aspergillus niger): 10 mg/kg
- MIC (Aspergillus niger; [3]): 25 mg/kg
- MIC (Aspergillus niger; [4]): 25 mg/kg
